Source: ChEMBL document CHEMBL5154741, “Antibacterial alkylguanidino ureas: Molecular simplification approach, searching for membrane-based MoA” (Eur J Med Chem, 2022)

Key:
[1] = (§1) Apparent permeability of the compound across bacterial inner membrane mimic PC-phospholipids in PBS buffer at pH 7.4 incubated for 5 hrs by PAMPA based UV-Vis spectrophotometric analysis; assay type: ADME
[2] = as §1, with “hrs in presence of 1,3,3-tris(8-carbamimidamidooctyl)-1-{8-[N'-(cyclopropylmethyl)carbamimidamido]octyl}urea trifluoroacetate salt” for “hrs”
[3] = Apparent permeability of the compound across bacterial inner membrane mimic pure POPG in PBS buffer at pH 7.4 incubated for 5 hrs by PAMPA based UV-Vis spectrophotometric analysis; assay type: ADME
[4] = Apparent permeability of the compound across bacterial inner membrane mimic PC-phospholipids in PBS buffer at pH 7.4 incubated for 5 hrs in presence of 1,3-bis(8-aminooctyl)-1,3-bis(8- carbamimidamidooctyl)urea trifluoroacetate salt by PAMPA based UV-Vis spectrophotometric analysis
[5] = as §1, with “hrs in presence of 1,1-bis({6-[N'-(cyclopropylmethyl)carbamimidamido]hexyl})-3-{8-[N'-(cyclopropylmethyl)carbamimidamido]octyl}-3-octylurea” for “hrs”
[6] = Apparent permeability of the compound across bacterial inner membrane mimic POPE/POPG (6:4) in PBS buffer at pH 7.4 incubated for 5 hrs by PAMPA based UV-Vis spectrophotometric analysis; assay type: ADME
[7] = Apparent permeability of the compound across bacterial inner membrane mimic PC-phospholipids in PBS buffer at pH 7.4 incubated for 5 hrs in presence of {8-[N'(cyclopropylmethyl)carbamimidamido]octyl}urea trifluoroacetate salt by PAMPA based UV-Vis spectrophotometric analysis
[8] = Apparent permeability of the compound across bacterial inner membrane mimic PC-phospholipids in PBS buffer at pH 7.4 incubated for 5 hrs in presence of 1,3-bis(8-carbamimidamidooctyl)-1,3-bis({8-[N'-(cyclopropylmethyl)carbamimidamido]octyl})urea by PAMPA based UV-Vis spectrophotometric analysis
[9] = Apparent permeability of the compound across bacterial inner membrane mimic pure POPG in PBS buffer at pH 7.4 incubated for 5 hrs in presence of 1,3-bis(8-carbamimidamidooctyl)-1,3-bis({8-[N'-(cyclopropylmethyl)carbamimidamido]octyl})urea by PAMPA based UV-Vis spectrophotometric analysis
[10] = (§2) Apparent permeability of the compound across bacterial inner membrane mimic pure POPG in PBS buffer at pH 7.4 incubated for 5 hrs in presence of {8-[N'(cyclopropylmethyl)carbamimidamido]octyl}urea trifluoroacetate salt by PAMPA based UV-Vis spectrophotometric analysis
[11] = Apparent permeability of the compound across bacterial inner membrane mimic pure POPG in PBS buffer at pH 7.4 incubated for 5 hrs in presence of 1,1-bis({6-[N'-(cyclopropylmethyl)carbamimidamido]hexyl})-3-{8-[N'-(cyclopropylmethyl)carbamimidamido]octyl}-3-octylurea by PAMPA based UV-Vis spectrophotometric analysis
[12] = Apparent permeability of the compound across bacterial inner membrane mimic pure POPG in PBS buffer at pH 7.4 incubated for 5 hrs in presence of 1,3-bis(8-aminooctyl)-1,3-bis(8- carbamimidamidooctyl)urea trifluoroacetate salt by PAMPA based UV-Vis spectrophotometric analysis
[13] = as §2, with “1,3,3-tris(8-carbamimidamidooctyl)-1-{8-[N'-(cyclopropylmethyl)carbamimidamido]octyl}urea” for “{8-[N'(cyclopropylmethyl)carbamimidamido]octyl}urea”
[14] = Apparent permeability of the compound across bacterial inner membrane mimic POPE/POPG (6:4) in PBS buffer at pH 7.4 incubated for 5 hrs in presence of 1,3-bis(8-carbamimidamidooctyl)-1,3-bis({8-[N'-(cyclopropylmethyl)carbamimidamido]octyl})urea by PAMPA based UV-Vis spectrophotometric analysis
[15] = (§3) Apparent permeability of the compound across bacterial inner membrane mimic POPE/POPG (6:4) in PBS buffer at pH 7.4 incubated for 5 hrs in presence of {8-[N'(cyclopropylmethyl)carbamimidamido]octyl}urea trifluoroacetate salt by PAMPA based UV-Vis spectrophotometric analysis
[16] = Apparent permeability of the compound across bacterial inner membrane mimic POPE/POPG (6:4) in PBS buffer at pH 7.4 incubated for 5 hrs in presence of 1,1-bis({6-[N'-(cyclopropylmethyl)carbamimidamido]hexyl})-3-{8-[N'-(cyclopropylmethyl)carbamimidamido]octyl}-3-octylurea by PAMPA based UV-Vis spectrophotometric analysis
[17] = Apparent permeability of the compound across bacterial inner membrane mimic POPE/POPG (6:4) in PBS buffer at pH 7.4 incubated for 5 hrs in presence of 1,3-bis(8-aminooctyl)-1,3-bis(8- carbamimidamidooctyl)urea trifluoroacetate salt by PAMPA based UV-Vis spectrophotometric analysis
[18] = as §3, with “1,3,3-tris(8-carbamimidamidooctyl)-1-{8-[N'-(cyclopropylmethyl)carbamimidamido]octyl}urea” for “{8-[N'(cyclopropylmethyl)carbamimidamido]octyl}urea”

O=C(N[C@H](CO)[C@H](O)c1ccc([N+](=O)[O-])cc1)C(Cl)Cl [CHLORAMPHENICOL]
Papp at 5 h [1]: 0.54 ×10⁻⁶ cm/s
Papp at 5 h [2]: 4.67 ×10⁻⁶ cm/s
Papp at 5 h [3]: 0.06 ×10⁻⁶ cm/s
Papp at 5 h [4]: 3.24 ×10⁻⁶ cm/s
Papp at 5 h [5]: 8.73 ×10⁻⁶ cm/s
Papp at 5 h [6]: 1.12 ×10⁻⁶ cm/s
Papp at 5 h [7]: 0.04 ×10⁻⁶ cm/s
Papp at 5 h [8]: 6.12 ×10⁻⁶ cm/s
Papp at 5 h [9]: 2.18 ×10⁻⁶ cm/s
Papp at 5 h [10]: 0.08 ×10⁻⁶ cm/s
Papp at 5 h [11]: 3.39 ×10⁻⁶ cm/s
Papp at 5 h [12]: 3.14 ×10⁻⁶ cm/s
Papp at 5 h [13]: 3.78 ×10⁻⁶ cm/s
Papp at 5 h [14]: 1.39 ×10⁻⁶ cm/s
Papp at 5 h [15]: 1.67 ×10⁻⁶ cm/s
Papp at 5 h [16]: 6.64 ×10⁻⁶ cm/s
Papp at 5 h [17]: 6.11 ×10⁻⁶ cm/s
Papp at 5 h [18]: 6.98 ×10⁻⁶ cm/s
